Test results taken from patent publication US20060040871A1, “Bacterial transforming agent” (priority 2003, published 2006).
Read-outs that look alike come from different tables or passages of the source.

Columns and labels:
MRSA [1] = experiment: MIC of ceftazidime or cefuroxime for MRSA grown with or without GBE (Table 2); type: cell-based, Staphylococcus aureus; details: for MIC of ceftazidime / MIC of cefuroxime: GBE (0.2%)
Description: Importantly, the usefulness of the agents of the present invention is not limited to increasing bacterial sensitivity to methicillin.

[2] = test system: MRSA with intermediate resistance to glycopeptides; experiment: MIC of vancomycin or teicoplanin for MRSA with intermediate resistance to glycopeptides grown with GBE or NAGly (Table 4); type: cell-based, Staphylococcus aureus; details: GBE 0.001M; for MIC: Staphylococcus aureus
S. aureus = experiment: MIC of methicillin for already sensitive S. aureus with GBE, with or without 1% human plasma (Table 6); type: cell-based, Staphylococcus aureus; details: for MIC of methicillin: GBE 0.00075M [0.15%]
Description: As previously mentioned, a common cause of auto-infection is due to S. aureus carried on the anterior nares. […] The transforming agents of the present invention may also be used in combination with a suitable antimicrobial to eliminate nasal carriage of MSSA prior to cardiac surgery or other invasive procedures carrying a high risk of auto-infection.

MRSA [3] = experiment: Antimicrobial plus BTA against recent clinical MRSA isolates (Table 7); type: cell-based, Staphylococcus aureus
Description: The four clinical isolates were isolated from patients during the first three months of 2003. […] An intermediate MRSA has been included, as methicillin-resistance has been achieved by means other than production of PBP2a.

VRE = experiment: Antimicrobial plus BTA against VRE (Table 7); type: cell-based, enterococci; details: +BTA 1.0%
MRSA [4] = details: increasing concentrations of glycine in the growth medium; cited from earlier work

NCC(=O)OCc1ccccc1 [GBE, Glycine Benzyl Ester]
MIC of ceftazidime (MRSA [1]; CD40 (EMRSA-1)): 4 mg/L | MIC of cefuroxime (MRSA [1]; CD40 (EMRSA-1)): 2 mg/L | MIC of ceftazidime (MRSA [1]; DS09 (EMRSA-1)): 2 mg/L | MIC of cefuroxime (MRSA [1]; DS09 (EMRSA-1)): 2 mg/L | MIC of ceftazidime (MRSA [1]; E15-97 (EMRSA-15)): 4 mg/L | MIC of cefuroxime (MRSA [1]; E15-97 (EMRSA-15)): 4 mg/L | MIC of ceftazidime (MRSA [1]; E16-96 (EMRSA-16)): 2 mg/L | MIC of cefuroxime (MRSA [1]; E16-96 (EMRSA-16)): 4 mg/L | MIC of ceftazidime (MRSA [1]; JF1-32 (EMRSA-1)): 2 mg/L | MIC of cefuroxime (MRSA [1]; JF1-32 (EMRSA-1)): 2 mg/L | MIC of ceftazidime (MRSA [1]; MC01 (EMRSA-1)): 2 mg/L | MIC of cefuroxime (MRSA [1]; MC01 (EMRSA-1)): 4 mg/L | MIC of ceftazidime (MRSA [1]; NCTC 12493): 2 mg/L | MIC of cefuroxime (MRSA [1]; NCTC 12493): 4 mg/L | MIC of ceftazidime (MRSA [1]; PS3-32 (EMRSA-1)): 4 mg/L | MIC of cefuroxime (MRSA [1]; PS3-32 (EMRSA-1)): 4 mg/L | MIC of ceftazidime (MRSA [1]; SN31 (EMRSA-1)): 4 mg/L | MIC of cefuroxime (MRSA [1]; SN31 (EMRSA-1)): 4 mg/L | MIC of ceftazidime (MRSA [1]; ST11 (EMRSA-1)): 2 mg/L | MIC of cefuroxime (MRSA [1]; ST11 (EMRSA-1)): 2 mg/L | MIC of ceftazidime (MRSA [1]; SW2-32 (EMRSA-1)): 4 mg/L | MIC of cefuroxime (MRSA [1]; SW2-32 (EMRSA-1)): 4 mg/L | transformation to ceftazidime and cefuroxime sensitivity (MRSA [1]; Table 2): transforms the MRSA tested to ceftazidime and cefuroxime sensitivity | MIC of vancomycin ([2]; L266 (first line), EMRSA-17 (VISA)): 2 mg/L | MIC of vancomycin ([2]; L266 (second line), EMRSA-17 (VISA)): 1 mg/L | MIC of vancomycin ([2]; NCTC 12493): 0.12 mg/L | MIC ([2]; MRSA / NCTC 12493, read-out: MIC of teicoplanin, NCTC 12493): 0.06 µg/mL | MIC ([2]; MRSA, read-out: MIC of teicoplanin, L265, EMRSA-16 (TISA)): 1 µg/mL | MIC ([2]; MRSA, read-out: MIC of teicoplanin, L266, EMRSA-16 (TISA)): 2 µg/mL | MIC of methicillin (S. aureus; 5518 (EMRSA-1), no plasma): <0.25 mg/L | MIC of methicillin (S. aureus; 5518 (EMRSA-1), plasma (1%)): 0.5 mg/L | MIC of methicillin (S. aureus; LHS77, no plasma): <0.25 mg/L | MIC of methicillin (S. aureus; LHS77, plasma (1%)): <0.25 mg/L | MIC of methicillin (S. aureus; LHS78, no plasma): <0.25 mg/L | MIC of methicillin (S. aureus; LHS78, plasma (1%)): 1 mg/L | MIC of methicillin (S. aureus; LHS79, no plasma): <0.25 mg/L | MIC of methicillin (S. aureus; LHS79, plasma (1%)): 0.25 mg/L | MIC of methicillin (S. aureus; LHS80, no plasma): <0.25 mg/L | MIC of methicillin (S. aureus; LHS80, plasma (1%)): 0.25 mg/L | MIC of methicillin (S. aureus; LHS81, no plasma): <0.25 mg/L | MIC of methicillin (S. aureus; LHS81, plasma (1%)): <0.25 mg/L | MIC of methicillin (S. aureus; LHS82, no plasma): <0.25 mg/L | MIC of methicillin (S. aureus; LHS82, plasma (1%)): 4 mg/L | MIC of methicillin (S. aureus; LHS83, no plasma): <0.25 mg/L | MIC of methicillin (S. aureus; LHS83, plasma (1%)): 0.25 mg/L | MIC of methicillin (S. aureus; LHS84, no plasma): <0.25 mg/L | MIC of methicillin (S. aureus; LHS84, plasma (1%)): 2 mg/L | MIC of methicillin (S. aureus; LHS85, no plasma): <0.25 mg/L | MIC of methicillin (S. aureus; LHS85, plasma (1%)): 0.5 mg/L | MIC of methicillin (S. aureus; LHS86, no plasma): <0.25 mg/L | MIC of methicillin (S. aureus; LHS86, plasma (1%)): 0.25 mg/L | MIC of methicillin (S. aureus; LHS87, no plasma): <0.25 mg/L | MIC of methicillin (S. aureus; LHS87, plasma (1%)): 4 mg/L | MIC of methicillin (S. aureus; LHS88, no plasma): <0.25 mg/L | MIC of methicillin (S. aureus; LHS88, plasma (1%)): 0.5 mg/L | MIC of methicillin (S. aureus; LHS89, no plasma): <0.25 mg/L | MIC of methicillin (S. aureus; LHS89, plasma (1%)): 0.5 mg/L | MIC of methicillin (S. aureus; LHS90, no plasma): <0.25 mg/L | MIC of methicillin (S. aureus; LHS90, plasma (1%)): <0.25 mg/L | MIC of methicillin (S. aureus; LHS91, no plasma): <0.25 mg/L | MIC of methicillin (S. aureus; LHS91, plasma (1%)): <0.25 mg/L | MIC of methicillin (S. aureus; LHS92, no plasma): <0.25 mg/L | MIC of methicillin (S. aureus; LHS92, plasma (1%)): 1 mg/L | MIC of methicillin (S. aureus; LHS93, no plasma): <0.25 mg/L | MIC of methicillin (S. aureus; LHS93, plasma (1%)): 0.5 mg/L | MIC of methicillin (S. aureus; LHS94, no plasma): <0.25 mg/L | MIC of methicillin (S. aureus; LHS94, plasma (1%)): 0.5 mg/L | effect on methicillin sensitivity of already sensitive bacteria (S. aureus; Table 6): increases the sensitivity of already sensitive bacteria to methicillin | Oxacillin (antimicrobial plus BTA; quantity not named, MIC implied) (MRSA [3]; EMRSA-16, +BTA 0.01%): 4 µg/mL | Cephalexin (antimicrobial plus BTA; quantity not named, MIC implied) (MRSA [3]; EMRSA-16, +BTA 0.1%): 2 µg/mL | Oxacillin (antimicrobial plus BTA; quantity not named, MIC implied) (MRSA [3]; EMRSA-16, +BTA 0.1%): 2 µg/mL | Cephalexin (antimicrobial plus BTA; quantity not named, MIC implied) (MRSA [3]; EMRSA-16, +BTA 1.0%): 1 µg/mL | Oxacillin (antimicrobial plus BTA; quantity not named, MIC implied) (MRSA [3]; EMRSA-16, +BTA 1.0%): 1 µg/mL | Vancomycin (antimicrobial plus BTA; quantity not named, MIC implied) (MRSA [3]; EMRSA-16, +BTA 1.0%): 0.25 µg/mL | Oxacillin (antimicrobial plus BTA; quantity not named, MIC implied) (MRSA [3]; EMRSA-17, +BTA 0.01%): 6 µg/mL | Cephalexin (antimicrobial plus BTA; quantity not named, MIC implied) (MRSA [3]; EMRSA-17, +BTA 0.1%): 2 µg/mL | Oxacillin (antimicrobial plus BTA; quantity not named, MIC implied) (MRSA [3]; EMRSA-17, +BTA 0.1%): 2 µg/mL | Cephalexin (antimicrobial plus BTA; quantity not named, MIC implied) (MRSA [3]; EMRSA-17, +BTA 1.0%): 1.5 µg/mL | Oxacillin (antimicrobial plus BTA; quantity not named, MIC implied) (MRSA [3]; EMRSA-17, +BTA 1.0%): 1.5 µg/mL | Vancomycin (antimicrobial plus BTA; quantity not named, MIC implied) (MRSA [3]; EMRSA-17, +BTA 1.0%): 0.25 µg/mL | Oxacillin (antimicrobial plus BTA; quantity not named, MIC implied) (MRSA [3]; I-MRSA, +BTA 0.01%): 2 µg/mL | Cephalexin (antimicrobial plus BTA; quantity not named, MIC implied) (MRSA [3]; I-MRSA, +BTA 0.1%): 1 µg/mL | Oxacillin (antimicrobial plus BTA; quantity not named, MIC implied) (MRSA [3]; I-MRSA, +BTA 0.1%): 1 µg/mL | Cephalexin (antimicrobial plus BTA; quantity not named, MIC implied) (MRSA [3]; I-MRSA, +BTA 1.0%): 0.75 µg/mL | Oxacillin (antimicrobial plus BTA; quantity not named, MIC implied) (MRSA [3]; I-MRSA, +BTA 1.0%): 0.75 µg/mL | Vancomycin (antimicrobial plus BTA; quantity not named, MIC implied) (MRSA [3]; I-MRSA, +BTA 1.0%): < 0.25 µg/mL | Vancomycin (antimicrobial plus BTA; quantity not named, MIC implied) (VRE): 64 µg/mL

NCC(=O)O [Glycine, glycine]
effect on MIC of methicillin against MRSA (MRSA [4]): reduces the MIC of methicillin against MRSA
